Results published in PubChem BioAssay AID179 (DTP/NCI, 2004).
Calls of active or inactive are those of the source.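 Rule for the calls: active = compounds giving half or more protection of infected cells from virus-caused growth loss, again on retest; inactive = the rest.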 Where a SMILES comes first, the peptide text is derived from it. [ ]: non-standard residue; d: D form. The star is where a group is joined. ξ: configuration not given here. ξF = NC(Cc1ccccc1)C(=O)O; Cbz = O=C(OCc1ccccc1)*; Boc = CC(C)(C)OC(=O)*; Aib = CC(C)(N)C(=O)O

Tested on: CEM cells HIV-1 protection, formazan growth assay
Test: NCI AIDS Antiviral Assay
Settings: for IC50: measured here: growth of uninfected CEM cells
Outline: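 Human CEM cells, uninfected and HIV-1-infected, received five drug concentrations, and growth was read by soluble formazan assay. Compounds giving at least 50% protection were retested; reproducible 100% protection defined confirmed active.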

Cc1ccc(S(=O)(=O)N/N=C2\C=CC3(CC2)C(=O)N(I)c2ccccc23)cc1 (configuration not stated)
outcome: inactive

CN1C(=O)n2c(nc3ccccc32)C(N=[N+]=[N-])(N=[N+]=[N-])C1=O (configuration not stated)
EC50: 70.8 µM
IC50: > 100 µM

COC(=O)C1=C(C)N(NC(=O)Nc2ccccc2)C2(N)N(NC(=O)Nc3ccccc3)C(C)=C(C(=O)OC)C12C(=O)OC (configuration not stated)
EC50: > 31.6 µM
IC50: > 31.6 µM

CC12c3ccccc3C(C)(c3c1ccc1ccccc31)C1C(=O)OC(=O)C12 (configuration not stated)
EC50: > 38.9 µM
IC50: 26.9 µM

CC1(C)OCC2OC3([C@H](O)CCO)OC(C)(C)OC3C2O1 (some centres not stated)
EC50: > 200 µM
IC50: > 200 µM

c1cc(NC2=NCCO2)c2c(c1)OCO2
EC50: > 200 µM
IC50: > 200 µM

CC1CC(N)=C(C#N)C1(C#N)C#N (configuration not stated)
EC50: > 200 µM
IC50: 138 µM

O=[N+]([O-])c1ccc(/C=C/c2ccc(N=Nc3ccc(/C=C/c4ccc([N+](=O)[O-])cc4S(=O)(=O)O)c(S(=O)(=O)O)c3)cc2S(=O)(=O)O)c(S(=O)(=O)O)c1
EC50: 12.6 µM
IC50: > 200 µM

CCOCN1C(=O)C2CC(/C=C/C(=O)OC)=CN2C(=O)c2ccccc21 (configuration not stated)
outcome: inactive

COc1cc(N=Nc2ccc(S(=O)(=O)O)cc2)c(C)cc1N=Nc1cc(S(=O)(=O)O)c(NC(=O)c2ccc(N)cc2)cc1NC(C)=O
EC50: 13.2 µM
IC50: > 200 µM

CN1CN(C(=O)N2CN(C)C(=O)N(C)C2)CN(C)C1=O
EC50: > 158 µM
IC50: > 158 µM

O=C(/C=C/c1ccccc1O)c1ccccc1O
EC50: > 209 µM
IC50: > 209 µM

C[N+](C)(C)C1CC([N+](C)(C)C)C2c3ccccc3C21 (configuration not stated)
outcome: inactive

NC(=O)NNC(=O)c1nc[nH]c1[N+](=O)[O-]
EC50: > 200 µM
IC50: > 200 µM

O/N=C1\CC(c2ccccc2)Oc2ccccc21 (configuration not stated)
EC50: > 200 µM
IC50: 126 µM

COc1ccc2[nH]c3c(c2c1)CCNC3CC(C)CCC=C(C)C (configuration not stated)
EC50: > 100 µM
IC50: 6.31 µM

Cc1c2n(c3ccccc13)CC1C2N(C)OC1(C)C (configuration not stated)
EC50: > 263 µM
IC50: > 263 µM

Clc1ccc(C[P+](c2ccccc2)(c2ccccc2)c2ccccc2)cc1Cl
EC50: > 200 µM
IC50: 3.02 µM

COc1cc(N=Nc2ccccc2)cc(/C=N\[N-]C(N)=S)c1[O-].COc1cc(N=Nc2ccccc2)cc(/C=N\[N-]C(N)=S)c1[O-].[Fe+4]
EC50: > 26.3 µM
IC50: > 26.3 µM

Cn1c(=O)cc(N2CCCC2)[nH]c1=O
EC50: > 200 µM
IC50: > 200 µM

Cc1ncc([N+](=O)[O-])n1CCN(C)C(=O)CCCn1ccnc1[N+](=O)[O-]
EC50: > 200 µM
IC50: > 200 µM

NC(=O)c1cn(C2OC(CO)C(O)C2O)c(=O)[nH]c1=O (configuration not stated)
EC50: > 871 µM
IC50: > 871 µM

Cc1ccc2[nH]c3c(c(=O)n(C)c(=O)n3C)c2c1
EC50: > 200 µM
IC50: > 200 µM

O=C1CSC(/C=C/c2ccccc2)N1c1ccc(-c2ccc(-n3c(-c4ccccc4)nc4ccccc4c3=O)cc2)cc1 (configuration not stated)
EC50: > 200 µM
IC50: 28.2 µM

CN(C)CCCC12OC(c3ccccc31)C(O)c1ccccc12 (configuration not stated)
EC50: > 200 µM
IC50: > 200 µM

COc1cc2cc(C(=O)N3CC(CCl)c4c3cc([N+](C)(C)Cc3ccc([N+](=O)[O-])n3C)c3ccccc43)[nH]c2c(OC)c1OC (configuration not stated)
EC50: > 2 µM
IC50: 1.26 µM

COC(=O)C(Cc1c[nH]c2ccccc12)NC(=O)C(Cc1c[nH]c2ccccc12)NC(=O)C(Cc1c[nH]c2ccccc12)NC(=O)OC(C)(C)C (stereo not drawn) (Boc-Trp-Trp-Trp-OMe; configuration not given here)
EC50: > 200 µM
IC50: 29.5 µM

Cc1ccccc1N=CN(C)C
EC50: > 200 µM
IC50: 42.7 µM

NC(N)=NCCCC(Nc1c2ccccc2nc2ccccc12)C(=O)O (configuration not stated)
outcome: inactive

COC(=O)C(=O)C(C(=O)C(=O)Nc1ccccc1C(N)=O)c1nc2ccc([N+](=O)[O-])cc2[nH]c1=O (configuration not stated)
EC50: > 525 µM
IC50: 372 µM

N#CC(C(=O)CCC(=O)Nc1cccc(C(F)(F)F)c1)c1ccccc1 (configuration not stated)
EC50: > 692 µM
IC50: > 692 µM

CSCCCSC1CCCCCCCCCCC1=O (configuration not stated)
EC50: > 200 µM
IC50: > 200 µM

CSC1=N/C(=C\c2ccccc2)C(=O)N1CN1CCCCC1
EC50: > 200 µM
IC50: 115 µM

C[C@@H]1C(=O)c2c(O)cc(O)cc2O[C@@H]1C
EC50: > 200 µM
IC50: > 200 µM

O=C(O)CCC1C(=O)C2CCN1CC2 (configuration not stated)
EC50: > 200 µM
IC50: > 200 µM

CC(Nc1cccc(Cl)c1)c1ccncc1 (configuration not stated)
EC50: > 200 µM
IC50: 95.5 µM

OCC1NC(CC2OC(CO)C(O)C(O)C2O)C(O)C(O)C1O (configuration not stated)
EC50: > 200 µM
IC50: > 200 µM

Cc1nn(C(=O)Cc2ccccc2)c2c1C(c1ccccc1[N+](=O)[O-])SC(N)=N2 (configuration not stated)
EC50: > 501 µM
IC50: 87.1 µM

CC1(C)CC(=O)c2c(nc3ccc4ccccc4c3c2-c2ccc(NC(=O)CCCCCCCCC(=O)Nc3ccc(-c4c5c(nc6ccc7ccccc7c46)CC(C)(C)CC5=O)cc3)cc2)C1
EC50: > 100 µM
IC50: > 100 µM

CN1COCN=C1NC#N
EC50: > 631 µM
IC50: > 631 µM

O=C(/C=C/c1ccccc1)c1cc2c(cc1O)OCO2
EC50: > 70.8 µM
IC50: 5.25 µM

CC(/C=C/C(O)=C1/C(=O)CNC1=O)=C\[C@@H](C)[C@H]1O[C@@]2(C)O[C@H](C(=O)[C@@H]3O[C@@]32C)[C@@H]1C
EC50: > 200 µM
IC50: 91.2 µM

CC(=O)OC1CCC2(C)C(C1)CC(OC(C)=O)C1C2CC(OC(C)=O)C2(C)C(C(C)CC=C(c3ccccc3)c3ccccc3)CCC12 (configuration not stated)
EC50: > 7.94 µM
IC50: 5.01 µM

CC(C)CCCC(C)[C@H]1CCC2C3CC=C4C[C@@H](OP(=O)(O)OCCC=C(c5cc(Cl)c(O)c(C(=O)O)c5)c5cc(Cl)c(O)c(C(=O)O)c5)CC[C@]4(C)C3CC[C@@]21C (some centres not stated)
EC50: > 100 µM
IC50: 38.9 µM

COC(=O)C(C)(C)NC(=O)C(Cc1ccccc1)NC(=O)C(C)(C)NC(=O)OCc1ccccc1 (configuration not stated) (Cbz-[Aib]-[ξF]-[Aib]-OMe)
EC50: 195 µM
IC50: 741 µM

Cn1c(N)c2c3c(sc2nc1=O)CCCC3
EC50: 77.6 µM
IC50: > 100 µM

O=C1C=CC(=O)c2c1ccc1c3ccccc3n(CCCCCCCCn3c4ccccc4c4ccc5c(c43)C(=O)C=CC5=O)c21
EC50: > 100 µM
IC50: 52.5 µM

COc1cc(/C=C/C(=N\NS(=O)(=O)c2ccc(C)cc2)c2sc(NNC(C)=O)nc2C)ccc1O
EC50: > 46.8 µM
IC50: > 46.8 µM

C(=C\c1ccccc1)/COc1ccccc1C(N1CCOCC1)n1nc2ccccc2n1 (configuration not stated)
EC50: > 200 µM
IC50: 6.76 µM

CC(=O)Oc1c(C)cc(-c2cc(C)c(OC(C)=O)c(C)c2)cc1C
EC50: > 200 µM
IC50: 55 µM

O=[N+]([O-])c1ccc(C=Cc2ccc(C(F)(F)F)cc2)cc1.[C-]#[O+].[C-]#[O+].[C-]#[O+].[Cr]
outcome: inactive

Fc1ccc(Nc2nc(Cl)c3[nH]cnc3n2)cc1Cl
EC50: > 200 µM
IC50: > 200 µM

CN(C)CCNc1ccc(NCCN(C)C)c2c1C(=O)c1ncsc1C2=O
EC50: > 100 µM
IC50: 0.724 µM

CNC(=O)OCc1nc(SC)n(C)c1COC(=O)NC
EC50: > 708 µM
IC50: 309 µM

CC(=O)C(CN(C)C)C(c1ccccc1)c1c(O)c2ccccc2oc1=O (configuration not stated)
EC50: > 64.6 µM
IC50: 11 µM

CC(C)c1oc(=O)cc2c1C(O)C1OC(=O)C3(C)C(O)C4OC4C2(C)C13 (configuration not stated)
EC50: > 36.3 µM
IC50: 0.17 µM

O=[N+]([O-])c1c(/C=N/Nc2ccccc2)oc(-c2ccc3c(c2)OCO3)c1-c1ccc2c(c1)OCO2
EC50: > 21.4 µM
IC50: 3.98 µM

Nc1nc(=S)c2[nH]cnc2[nH]1
EC50: > 60.3 µM
IC50: 0.955 µM

COc1c(Cl)cc(C(=CCCCC(=O)O)c2cc(Cl)c(OC)c(C(=O)O)c2)cc1C(=O)O
EC50: > 200 µM
IC50: > 200 µM

O=C(Nc1cccc2ccccc12)Oc1ccccc1C1CCCCC1
outcome: inactive

O=C(/C=C/c1cc2ccccc2o1)N1CCN(c2ccccn2)CC1
EC50: > 200 µM
IC50: 191 µM

Cc1oc2nc(N(C)C)n3cnnc3c2c1C
outcome: inactive

CC1=C(O)c2cn(C)cc2C(=O)C1=O
outcome: inactive

CC(=O)N(CN1C(=O)CCC1C(=O)O)c1cccc(O)c1 (configuration not stated)
outcome: inactive

COc1cc(NC=O)c(OC)cc1Cl
outcome: inactive

CCN(CC)CC1CCCCN1CC(=O)N1CC(C)C(=O)Nc2ccccc21 (configuration not stated)
EC50: 34.7 µM
IC50: 251 µM

COC1=C(C)C(=O)C2=C(C1=O)C1C3CC4=C(C(=O)C(OC)=C(C)C4=O)C(CNC(=O)C(C)=O)N3C(C#N)C(C2)N1C (configuration not stated)
EC50: > 1.2 µM
IC50: 0.0245 µM

CO[C@@]12[C@@H]3N[C@@H]3CN1C1=C(C(=O)C(NCCc3ccccn3)=C(C)C1=O)[C@@H]2COC(N)=O
EC50: > 200 µM
IC50: 2 µM

N#C/C(c1nc2ccccc2[nH]1)=c1\s/c(=C/c2ccccc2)c(=O)n1-c1ccccc1
EC50: > 200 µM
IC50: > 200 µM

CC1(C)OC2[C@@H](CO[C@@]3([C@@H](O)CCO)OC(C)(C)O[C@@H]23)O1 (some centres not stated)
EC50: > 200 µM
IC50: > 200 µM

O=S1(=O)c2ccccc2C(O)(c2ccccc2)c2cc3ccccc3n21 (configuration not stated)
EC50: > 27.5 µM
IC50: > 27.5 µM

O=c1cc(N2CCCC2)[nH]c(=O)n1Cc1ccccc1
outcome: inactive

Cc1cn([C@H]2C[C@H](NC(=O)N(O)C[C@H]3O[C@@H](n4cc(C)c(=O)[nH]c4=O)C[C@@H]3O)[C@@H](CO)O2)c(=O)[nH]c1=O
EC50: > 200 µM
IC50: > 200 µM

C=C(Br)CN(CC(=C)Br)C(C)=O
EC50: > 200 µM
IC50: > 200 µM

C[Si](C)(CCC(=O)O)O[Si](C)(C)CCC(=O)O
EC50: > 646 µM
IC50: > 646 µM

COC(=O)c1c(O)c(C#N)c2[nH]c3ccccc3n2c1=O
EC50: > 100 µM
IC50: > 100 µM

CC(C)=CCc1c(O)c(CC2=C(O)C(C)=C(O)C(CC=C(C)C)(C(=O)C(C)C)C2=O)c(O)c(C(=O)C(C)C)c1O (configuration not stated)
EC50: > 100 µM
IC50: 4.57 µM

CC(C)CCCC(C)[C@H]1CCC2[C@@H]3CCC4Nc5nocc5C[C@]4(C)C3CC[C@@]21C (some centres not stated)
outcome: inactive

COC(=O)C1Cc2cc3c(cc2C1)CCC3
EC50: > 200 µM
IC50: > 200 µM

COc1ccc(/C=C2\CCCCCC2=O)cc1
EC50: > 200 µM
IC50: > 200 µM

O=S(=O)(O)C1=C2Sc3ccccc3N=C2c2ccccc2C1
EC50: > 141 µM
IC50: 7.94 µM

CC1(C)Nc2cccc3c(N=Nc4ccc(N=Nc5ccccc5)c5ccccc45)ccc(c23)N1
EC50: > 200 µM
IC50: 26.3 µM
